How the values were obtained:
[1] = tested on: interaction of mtHtt with Tim23; test: Co-immunoprecipitation mtHtt/Tim23; format: cell-based; details: HV-3 treatment; total cell lysates, IP/WB
Method: (b) Stick drawings of VCP and Htt main domains. […] Immunoprecipitates were analysed by WB with the indicated antibodies. […] VCP mitochondrial levels were determined by WB. Loading control: VDAC. Data are mean±s.e.m. (g–i) ANOVA with Holm-Sidak post hoc test.

YAC128 mice = test: VCP mitochondrial level, YAC128 mouse striatum; format: in vivo; details: YAC128, 3 mg kg^−1 per day from 3 to 6 months versus TAT, n=6
Method: Cells were washed with cold PBS and incubated on ice for 30 min in a lysis buffer (250 mM sucrose, 20 mM HEPES-NaOH, pH 7.5, 10 mM KCl, 1.5 mM MgCl2, 1 mM EDTA, protease inhibitor cocktail and phosphatase inhibitor cocktail). Mouse brains were minced and homogenized in the lysis buffer and then placed on ice for 30 min. Collected cells or tissue were disrupted 20 times by repeated aspiration through a 25-gauge needle, followed by a 30-gauge needle. The homogenates were spun at 800 g for 10 min at 4 °C, and the resulting supernatants were spun at 10,000 g for 20 min at 4 °C. The pellets were washed with lysis buffer and spun at 10,000 g again for 20 min at 4 °C. The final pellets were suspended in lysis buffer containing 1% Triton X-100 and were mitochondrial-rich lysate fractions. The supernatant was centrifuged at 100,000 g, 4 °C, for 1 h, the pellets were suspended in lysis buffer containing 1% Triton X-100 as ER fractions. The final supernatant was cytosolic fractions. The mitochondrial proteins VDAC, the ER protein WFS1 and the cytosolic protein Enolase were used as loading controls for mitochondrial, ER and cytosolic fractions, respectively.
YAC128 (FVB-Tg(YAC128)53Hay/J, JAX stock number: 004938) breeders (FVB/N genetic background) were purchased from Jackson Laboratories. […]
Protein concentrations were determined by Bradford assay. […]

R6/2 mice [2] = test: Spontaneous locomotion, R6/2; format: in vivo, mouse; details: R6/2, 13 weeks of age, 3 mg kg^−1 per day s.c. pump from 5 weeks, n=15
Source text: Male R6/2 mice and their wt littermates (4 weeks old) were purchased from Jackson Laboratories (Bar Harbor, ME; B6CBA-TgN (HD exon 1)62; JAX stock number: 006494). These mice (C57BL/6 and CBA genetic background) are transgenic for the 5′ end of the human HD gene carrying 100–150 glutamine (CAG) repeats.
(§1) Male hemizygous R6/2 mice (Tg) and their age-matched wt littermates (5-week-old) were implanted with a 28-day osmotic pump (Alzet, Cupertino CA) containing TAT control peptide or HV-3 peptide, which delivered peptides to the mice at a rate of 3 mg kg^−1 per day. The first pump was implanted subcutaneously in the back of 5-week-old mice between the shoulders and replaced once, after 4 weeks.
Gross locomotor activity was assessed in R6/2 mice and age-matched wt littermates at the ages of 13 weeks and in YAC128 mice and age-matched wt littermates at the ages of 2, 3, 6, 9, and 12 months. In an activity chamber (Omnitech Electronics, Inc), mice were placed in the center of the chamber and allowed to explore while being tracked by an automated beam system (Vertax, Omnitech Electronics Inc). Distance moved, horizontal, vertical, and rearing activities were recorded. Because R6/2 mice were sensitive to changes in environment and handling, we only conducted one-hour locomotor activity analysis for R6/2 mice and wt littermates. […]

C57Black mice = test: Toxicity analysis in naive mice; format: in vivo, mouse
Method: Supplementary Figure 8 : Toxicity analysis of HV -3in naïve mice .
We performed a toxicity analysis of HV-3 in mice. Six -week-old C57Black mice were treated with saline or peptide HV-3 at 3mg/kg/day by Alzet pump implantation. After 4- week treatment, the plasma, blood and whole mouse bodies of mice were collected. Examination on blood chemistry (Supplementary Table 1), hematology (Supplementary Table 2) and general necropsy of mice were performed at the Animal Diagnostic Laboratory at Stanford University. The experimenter who conducted the analysis was blind to the treatment groups. Automated hematology was performed on the Sysmex XT-2000iV analyzer system. Blood smears were made for all full CBC samples and reviewed by a medical technologist. Manual differentials were performed as indicated by species and automated analysis. Chemistry analysis was performed on the Siemens Dimension Xpand analyzer.
(a) Frozen tissue sections of brain and spleen were stained with anti-CD3 antibody by immunohistochemistry. There is no observed difference in the immuno-density of CD3 between saline-and HV-3- treated groups. Scale bar: 100 µm. (b) The size and weight of spleens in mice treated with saline or peptide HV-3 were compared. Left: the ratio of spleen weight to body weight was calculated and expressed as mean ± SEM of five mice in each group. Right: the images of spleens of mice treated with saline or peptide HV-3. There is no observed difference in the size of the spleens. Paired Student’s t test. Four-week sustained treatment with HV-3 by pump implantation had no effects on blood chemistry (Supplementary Table 1), hematology (Supplementary Table 2), and gross necropsy of naïve mice when compared to mice treated with saline. A four-week treatment with HV-3 had […] on immuno-density of CD3, a marker of T-cell for adaptive immune response, in the brains and spleens of naïve mice (a). Treatment with HV-3 had no effects on the size and weight of the spleens (b). […]

R6/2 mice [3] = test: DARPP-32 immunostaining of striatum; format: in vivo, mouse; details: R6/2, 3 mg kg^−1 per day, n=6
Method: as §1
Mice were deeply anaesthetized and transcardially perfused with 4% paraformaldehyde in PBS. Brains were processed for paraffin embedment. Brain sections (5 μm, coronal) were used for immunohistochemical localization of DARPP-32 (1:500, Epitomics) using the IHC Select HRP/DAB kit (Millipore). Quantitation of DARPP-32 immunostaining was conducted using NIH image J software. The same image exposure times and threshold settings were used for sections from all treatment groups.

[4] = 3 mg/kg/day, 4 weeks, versus saline

In the case of CSCC[C@H](NC(=O)[C@@H](NC(=O)[C@H](CC(C)C)NC(=O)[C@@H](NC(=O)[C@H](Cc1c[nH]cn1)NC(=O)CCCCCNC(=O)[C@H](CCCNC(=N)N)NC(=O)[C@H](CCCNC(=N)N)NC(=O)[C@H](CCCNC(=N)N)NC(=O)[C@H](CCC(N)=O)NC(=O)[C@H](CCCNC(=N)N)NC(=O)[C@H](CCCNC(=N)N)NC(=O)[C@H](CCCCN)NC(=O)[C@H](CCCCN)NC(=O)[C@H](CCCNC(=N)N)NC(=O)CNC(=O)[C@@H](N)Cc1ccc(O)cc1)C(C)C)C(C)C)C(=O)N[C@@H](CS)C(=O)N[C@@H](C)C(=O)N[C@H](C(N)=O)[C@@H](C)O [HV-3], the “interaction of mtHtt with Tim23” value [1] is reported as “did not influence the interaction of mtHtt with Tim23”, the “VCP translocation to mitochondria in striatum” value (YAC128 mice) is reported as “blocked VCP translocation to mitochondria” and the “spontaneous locomotion (total distance, horizontal and vertical activities)” value (R6/2 mice [2]) is reported as “markedly corrected these motor deficits”. The toxicity (C57Black mice; 3 mg kg^−1 per day, 4-week Alzet pump) was “not toxic to naive mice”, the “CD3 immunodensity in brain and spleen” value (C57Black mice; [4]) was “no significant effects on the immunodensity of CD3” and the gross necropsy (C57Black mice; [4]) was “no effects”. The “size and weight of spleens” value (C57Black mice; 3 mg/kg/day, 4 weeks, versus saline, n = 5) was “no obvious effects on the size and weight of the spleens” and the “area of DARPP-32-immunostained cells in striatum” value (R6/2 mice [3]) was “increased by HV-3 treatment”.
